In PubChem BioAssay (NCI):
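Cells were grown in 96-well plates and exposed to each compound for 48 hours at five concentrations; endpoints were interpolated linearly between bracketing concentrations, or set to the highest concentration if not reached. TGI: concentration producing complete growth inhibition.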

What was measured:
Experiment in all cases: NCI-60 cell line screen, 48 h
[1] = tested on: COLO 205 colon
[2] = tested on: CCRF-CEM leukemia
[3] = tested on: MALME-3M melanoma
[4] = tested on: KM12 colon
[5] = tested on: HCT-15 colon
[6] = tested on: U251 CNS
[7] = tested on: SN12C renal
[8] = tested on: NCI-H226 lung

SMILES | TGI [1] [µM] | TGI [2] [µM] | TGI [3] [µM] | TGI [4] [µM] | TGI [5] [µM] | TGI [6] [µM] | TGI [7] [µM] | TGI [8] [µM]
O=C1CCC2(c3ccccc3)Nc3ccccc3N12 (configuration not stated) | > 100 | > 100 | > 100 | > 100 | > 100 | > 100 | > 100 | > 100
C=C1C(=O)C23[C@H](O)C1CC[C@H]2[C@]12COC3(O)[C@@H](O)[C@@H]1C(C)(C)CC[C@@H]2O | 2.14 | 95 | 6.94 | 31.4 | 15.9 | 18.9 | 35.3 | –
COc1ccccc1-c1cc(=O)c2cc(C)c(C)c(C(=O)O)c2o1 | > 100 | > 100 | > 100 | > 100 | > 100 | > 100 | > 100 | –
OC1=CN=COc2ccccc21 | > 100 | > 100 | > 100 | > 100 | > 100 | > 100 | > 100 | –
CC1(C)COC2C(N(Cc3ccccc3)Cc3ccccc3)C(=O)N21 (configuration not stated) | 61.8 | > 100 | > 100 | > 100 | > 100 | 70.8 | > 100 | > 100
CN(C)c1ccc(/C=C(\NC(=O)c2ccccc2)c2nc3ccc4c(c3[nH]2)C(=O)c2ccccc2C4=O)cc1 | > 100 | > 100 | > 100 | > 100 | > 100 | > 100 | > 100 | –
C#CCN(N=O)C(=O)ON1C(=O)CCC1=O | > 100 | > 100 | > 100 | > 100 | > 100 | > 100 | > 100 | –
COc1cc2c(c3c1c(=O)c1ccccc1n3C)C=CC(C)(C)O2 | > 100 | > 100 | > 100 | > 100 | > 100 | > 100 | > 100 | > 100
COC/N=C(\NC#N)NCOC | > 85.1 | > 100 | > 100 | > 100 | > 59.4 | > 100 | > 100 | > 100
CCOc1ccc(N=C(NC(=O)c2ccccc2)SC)cc1 | > 100 | > 100 | > 100 | – | > 100 | > 100 | > 100 | > 100
CC1CC2(S(=O)(=O)c3ccccc3)ON1CC2S(=O)(=O)c1ccccc1 (configuration not stated) | > 100 | > 100 | > 100 | > 100 | > 100 | > 100 | > 100 | > 100
COC(=O)C(=O)C(CC(=O)Nc1ccc(C)cc1)C(=O)OC (configuration not stated) | – | > 100 | > 100 | > 100 | > 100 | > 100 | > 100 | > 100
CN(C)C(=S)/N=c1\ssc(=S)n1C | – | > 100 | > 100 | > 100 | > 100 | > 100 | > 100 | > 100
CC1=Nc2ccccc2SC(c2c(Cl)cccc2Cl)C1 (configuration not stated) | 3.12 | 2.26 | 3.29 | 2.15 | 2.57 | 1.14 | 2.7 | 3.05
C[N+](C)(C)CC1CCCCC1=O (configuration not stated) | 49.3 | 20.2 | 38.6 | > 100 | 29 | > 100 | > 100 | > 100
N=c1c2ccccc2sc2nc3ccccc3n12 | > 100 | > 100 | > 100 | > 100 | – | > 100 | > 100 | > 100
COc1ccc(O)c(C(=O)CCC(=O)O)c1 | > 100 | > 100 | > 100 | > 100 | > 100 | > 100 | > 100 | > 100
CC(=O)c1ccc(NC(=O)C(=O)C(C(=O)/C=C/c2ccccc2)C2OC(=O)c3ccccc32)cc1 (configuration not stated) | > 100 | > 100 | > 100 | > 100 | > 100 | > 100 | > 100 | > 100
O=C1c2ccccc2C(=O)C12CCc1ccccc12 | > 100 | > 100 | > 100 | – | > 100 | > 100 | > 100 | –
COC(=O)c1cc(=O)nc2cc3cccccc3n12 | > 100 | > 100 | > 100 | > 100 | > 100 | > 100 | > 100 | > 100
CN/N=C(/c1nc2ccc([N+](=O)[O-])cc2[nH]c1=O)C(O)c1ccc(C(O)/C(=N\NC)c2nc3ccc([N+](=O)[O-])cc3[nH]c2=O)cc1 (configuration not stated) | > 100 | > 100 | > 100 | > 100 | > 100 | > 100 | – | > 100
CCOc1ccc(N=C2NC(=O)C(CC(=O)Nc3ccccc3[N+](=O)[O-])S2)cc1 (configuration not stated) | – | > 100 | > 100 | – | > 100 | > 100 | > 100 | > 100
